Values of other authors as cited in patent publication US20100317664A1, “METHODS OF AFFECTING GASTROINTESTINAL TRANSIT AND GASTRIC EMPTYING, AND COMPOUNDS USEFUL THEREIN” (priority 2007, published 2010).

What was measured:
rats = conditions: parenteral injection to rats

For N[C@@H](Cc1ccc(Cl)cc1)C(=O)O (racemic) [p-chlorophenylalanine], the adverse psychological effects (humans; in vivo) is given as “adverse psychological effects, such as dizziness, nausea and uneasiness”, the “entry into the central nervous system” value (humans; in vivo) is given as “readily gets into the central nervous system” and the constipation (humans; oral administration, high doses (3000 mg/day), humans) is given as “causes constipation”. The gastrointestinal motility (rats) was “decreased their gastrointestinal motility”.
